Results reported in patent US20240301408A1, “MICRORNA 195 COMPOSITIONS AND METHODS FOR TREATING COGNITIVE IMPAIRMENT” (UNITED STATES GOVERNMENT AS REPRESENTED BY THE DEPARTMENT …, priority 2021, published 2024).

Tested on: synaptojanin 1 (synj1)
Experiment: synj1 expression in cultured mouse neurons after AAV2 miRNA over-expression (western blot, qPCR)
Format: cell-based
Experimental: Mouse Neuronal and human iPSC culture. Primary cortical neurons were cultured (Zhu L et al., Proc Natl Acad Sci USA 2015, and Zhu L et al., J Biol Chem 2013) before being fixed and stained for confocal microscopy analysis (Zeiss LSM) (Berg I et al., Nat Protoc 2010). In some conditions, bovine serum albumin (BSA) or receptor-associated protein (RAP) was included in the cultured media (N=3/group). Alternatively, cultured neurons were transfected with adeno-associated virus 2 (AAV2)-containing miR-195-5p or miR-374 or scramble controls for 5 days before subjected to analysis. The ApoE4^+/+ and ApoE3^+/+ iPSCs were differentiated into neural progenitor cells (NPCs) by dual SMAD inhibition followed by neural rosette selection and forebrain-specific patterning by 20 ng/ml FGF2 exposure (Bowles K R et al., PloS one 2019, and Tcw J et al., Stem cell reports 2017). These NPCs were purified by MACS for CD271^−/CD133^+ (Bowles K R et al., PloS one 2019) and differentiated to cortical neurons (Bardy C et al., Proc Natl Acad Sci USA 2015, and Paquet D et al., Nature 2016) and a homogeneous population of astrocytes (Tcw J et al., Stem cell reports 2017, and Shaltouki A et al., Stem Cells 2013) before subjected to viral transfection and confocal microscopy analysis. Alternatively, mouse cortical neurons derived from ApoE4^+/+ and ApoE3^+/+ KI mice with synj1^+/+ or synj1^−/− genotypes were co-cultured with ApoE4^+/+ and ApoE3^+/+ iPSC-derived pure astrocytes. In some experiments, cultured neurons were transfected with AAV2-containing miR-195-5p, scramble controls or miR195 inhibitors that specifically prevent miR-195-5p binding to its target mRNA before co-culturing with iPSC-derived astrocytes. Cultured iPSC-derived neurons and astrocytes were then incubated with lysotracker red for various time periods before fixation and double-stained for pTau and a nuclear marker DAPI (blue) for confocal microscopy analysis (Zeiss). N=4-5/condition.
Brain and neuronal sample preparation and biochemical analysis. Snap-frozen mouse hemi-brains or cultured neurons were harvested in lysis buffer (Lane R F et al., The Journal of neuroscience 2010) and processed via step-wise solubilization (Lane R F et al., The Journal of neuroscience 2010, and Kawarabayashi T et al. The Journal of neuroscience 2001) followed by SDS-PAGE to determine levels of synj1, dyn1, holoAPP, and CTFs. Levels of Aβ42, Aβ40, pTau, Tau and ApoE were determined using high-sensitive ELISA kits. Some tissue was used for miRNA and RNA extraction followed by qPCR and RNA-seq analysis. Some animals underwent perfusion followed by brain tissue section for immunohistochemical staining of amyloid plaque, synj1 and pTau.
Statistical analysis. The sample sizes of each experiment were chosen based on power calculations derived from previous similar studies which allowed the determination of group sizes needed to achieve statistically significant results. […] Levels of miR-195-5p and miR-374 were normalized to U6 and RNU6B (internal controls) while synj1 mRNA normalized to GAPDH and 18s, and then expressed as Log2fold of changes when compared to controls. Levels of synj1, dyn1, pTau, Tau, and holoAPP were normalized to β-actin levels and expressed as a percentage of the control. Absolute Aβ42, Aβ40, pTau, Tau, and ApoE concentrations were quantitatively determined by ELISA and expressed as a percentage of the control. […] Pearson correlation coefficients were calculated to determine the linear relationship between the two variables. […]

[1] = ApoE3+/+ neurons with miR-195 over-expression
[2] = ApoE4+/+ neurons with miR-195 over-expression

## UAGCAGCACAGAAAUAUUGGC (chemistry not given here) [miR-195-5p, over-expressed via AAV2-containing miR-195-5p from ABM Inc]
[1]
  synj1 mRNA levels: −1.084±0.035 log2FC
  synj1 protein levels: 70.9±21.2 % of controls
[2]
  synj1 mRNA levels: −7.751±0.043 log2FC
  synj1 protein levels: 48.0±9.84 % of controls
ApoE-/- hippocampal neurons in presence of ApoE4-CM, miRNA over-expression, N=4/group
  synj1 protein levels: 62.87±4.48 % of controls
